Experiments:
[1] = test system: gp46 mRNA in pHSC; experiment: In vitro (pHSC) gp46 knockdown by siRNA liposome formulations, qRT-PCR; assay type: cell-based
[2] = test system: gp46 mRNA; experiment: In vivo (DMNQ) efficacy, short-term liver damage model, liver gp46 mRNA; parameters: species or system male Sprague-Dawley rats; conditions: single IV dose, liver 24 h after
Description: In vivo activity of target formulation was evaluated in the short-term liver damage model (referred to as the Quick Model or DMNQ). In this model, the short-term liver damage induced by treatment with a hepatotoxic agent such as dimethylnitrosamine (DMN) is accompanied by the elevation of gp46 mRNA levels. To induce these changes, male Sprague-Dawley rats were injected intraperitoneally with DMN on six consecutive days. At the end of the DMN treatment period, the animals were randomized to groups based upon individual animal body weight. Formulations was administered as a single IV dose, one hour after the last injection of DMN. Twenty four hours after, liver lobes were excised and both gp46 and MRPL19 mRNA levels were determined by quantitative RT-PCR (TaqMan) assay. mRNA levels for gp46 were normalized to MRPL19 levels. Results are depicted in FIG. 4. Several combinations of ionizable:cationic lipids achieved 50% reduction in gene expression for a single, 0.5 mg per kg of animal body weight, dose of encapsulated siRNA.

[3] = test system: HepG2 cells; experiment: HepG2 cytotoxicity assay (CellTiter-Glo); assay type: cell-based, human; conditions: HepG2 @ 200 nM, 48 h post formulation addition, n=3
Description: In Vitro Toxicology Data, In Vitro Cytotoxicity (HepG2 @ 200 nM)
HepG2 cells, an adherent cell line derived from human hepatocellular carcinoma, was cultured in MEM/EBSS (Hyclone, Logan, Utah, Cat# SH30024.01) supplemented with 10% FBS (Hyclone, Logan, Utah Cat# SH30910). HepG2 cells were seeded in 96-well Optilux black plates (BD Falcon, Cat # BD353220) at 5000 cells/well overnight. Formulations were added to each well to final indicated siRNA concentration (n=3). At 48 h post formulation addition, cell viability was determined using CellTiter-Glo Luminescent Cell Viability Assay Kit (Promega, Cat #G7572) following manufacture's instruction. Chemiluminescent signal were measured on Clarity Luminescence Microplate Reader (502-Biotek, Winooski, Vt.). Viability was calculated based on % of chemiluminescent signal in formulation treated well normalized against mock treated wells.

[4] = test system: gp46 mRNA in pHSC; experiment: In vitro (pHSC) gp46 knockdown by siRNA liposome formulations, qRT-PCR; assay type: cell-based; conditions: @ 20 nM
Description: In Vitro (pHSC, Gp46 KD @ 20 nM) Efficacy
PHSCs in 96-well plate were incubated with formulation that composed of either ionizable lipid formulation C104, ionizable lipid formulation Tu104, or combination formulations with different ratio of ionizable lipids (C104:Tu104). After 30 minutes, medium was replaced with fresh growth medium. Forty eight hours later, cells were lysed and gp46 and GAPDH mRNA levels measured by quantitative RT-PCR (TaqMan®) assay, and gp46 levels were normalized to GAPDH levels. Normalized gp46 levels were expressed as percent of mock control cells. Error bars indicate standard deviations (n=3). Results are depicted in FIG. 1.
Transfection method is same for LX-2 and pHSCs. The liposome formulations or lipoplex formulations of the description were mixed with growth medium at desired concentrations. 100 μl of the mixture was added to the cells in 96-well plate and cells were incubated for 30 min at 37° C. in the incubator with 5% CO2. After 30 min, medium was replaced with fresh growth medium. After 48 h of transfection, cells were processed using Cell-to-Ct lysis reagents (Applied Biosystems) according to the manufacturer's instructions.
HSP47 and GAPDH TaqMan®® assays and One-Step RT-PCR master mix were purchased from Applied Biosystems. Each PCR reaction contained the following composition: One-step RT-PCR mix 5 μl, TaqMan® RT enzyme mix 0.25 μl, TaqMan® gene expression assay probe (HSP47) 0.25 μl, TaqMan® gene expression assay probe (GAPDH) 0.5 μl, RNase free water 3.25 μl, Cell lysate 0.75 μl, Total volume of 10 μl. GAPDH was used as endogenous control for the relative quantification of HSP47 mRNA levels. Quantitative RT-PCR was performed in ViiA 7 realtime PCR system (Applied Biosciences). All values were normalized to the average HSP47 expression of the mock transfected cells and expressed as percentage of HSP47 expression compared to mock.

SMILES	in vitro (pHSC) % KD ([1]; @ 50 nM)	in vitro (pHSC) % KD [4]	other results
CCCCCCCC/C=C\CCCCCCCC(=O)OCCCN(CCCOC(=O)CCCCCCC/C=C\CCCCCCCC)C(=O)CN(C)C [i-Pr- DODC, (Z)-((2-(dimethylamino)acetyl)azanediyl)bis(propane-3,1-diyl) dioleate]	60% @ 50 nM		
CCCCCCCCCCCCCC(=O)OCCN(CCOC(=O)CCCCCCCCCCCCC)C(=O)CSCCN(C)C [Lipid S104, ((2-((2-(dimethylamino)ethyl)thio)acetyl)azanediyl)bis(ethane-2,1-diyl) ditetradecanoate]	68% @ 50 nM		in vivo (rat DMNQ) % KD ([2]; @ 0.5 mpk): 52% @ 0.5 mpk; % viability [3]: 52%
CCCCCCCCCCCCCC(=O)OCCN(CCOC(=O)CCCCCCCCCCCCC)C(=O)c1ccc(CN(C)C)s1 [Lipid T104, ((5-((dimethylamino)methyl)thiophene-2-carbonyl)azanediyl)bis(ethane-2,1-diyl) ditetradecanoate]		58% @ 20 nM	
CCCCCCCCCCCCCC(=O)OCCN(CCOC(=O)CCCCCCCCCCCCC)C(=O)OCCCN(C)C [CB104, (((3-(dimethylamino)propoxy)carbonyl)azanediyl)bis(ethane-2,1-diyl) ditetradecanoate]		42% @ 20 nM	
CCCCCCCCCCCCCC(=O)OCCN(CCOC(=O)CCCCCCCCCCCCC)C(=O)CCCCN(C)C [Lipid C104, ((5-(dimethylamino)pentanoyl)azanediyl)bis(ethane-2,1-diyl) ditetradecanoate]		53% @ 20 nM	in vivo (rat DMNQ) % KD ([2]; @ 0.5 mpk): 75% @ 0.5 mpk
CCCCCCCC/C=C\CCCCCCCC(=O)OCCN(CCOC(=O)CCCCCCC/C=C\CCCCCCCC)C(=O)CN(C)C [INT-4, (Z)-((2-(dimethylamino)acetyl)azanediyl)bis(ethane-2,1-diyl) dioleate]	70% @ 50 nM		
CCCCCCCC/C=C\CCCCCCCC(=O)OCCN(CCOC(=O)CCCCCCC/C=C\CCCCCCCC)C(=O)SCCN(C)C [TU104-DO, (Z)-((((2-(dimethylamino)ethyl)thio)carbonyl)azanediyl)bis(ethane-2,1-diyl) dioleate]		81% @ 20 nM	in vivo (rat DMNQ) % KD ([2]; @ 0.25 mpk): 40% @ 0.25 mpk
CCCCCCCCCCCCCC(=O)OCCN(CCOC(=O)CCCCCCCCCCCCC)C(=O)CS(=O)(=O)CCN(C)C [SO2-S104, ((2-((2-(dimethylamino)ethyl)sulfonyl)acetyl)azanediyl)bis(ethane-2,1-diyl) ditetradecanoate]		75% @ 20 nM	in vivo (rat DMNQ) % KD ([2]; @ 0.5 mpk): 18% @ 0.5 mpk
CCCC/C=C/CCCCCCCC(=O)OCCN(CCOC(=O)CCCCCCC/C=C/CCCC)C(=O)CSCCN(C)C [S104-DMO, (9Z,9′Z)-((2-((2-(dimethylamino)ethyl)thio)acetyl)azanediyl)bis(ethane-2,1-diyl) bis(tetradec-9-enoate)]			in vitro (pHSC) % KD ([1]; @ 10 nM): 40% @ 10 nM
CCCCCCCCCCCCCC(=O)OCCN(CCOC(=O)CCCCCCCCCCCCC)C(=O)CN(C)C [i-DC, ((2-(dimethylamino)acetyl)azanediyl)bis(ethane-2,1-diyl) ditetradecanoate]			in vitro (pHSC) % KD ([1]; @ 200 nM): 89% @ 200 nM
CCCCCCCCCCCCCC(=O)OCCN(CCOC(=O)CCCCCCCCCCCCC)C(=O)CCCN(C)C [i-Prop- DC, ((4-(dimethylamino)butanoyl)azanediyl)bis(ethane-2,1-diyl) ditetradecanoate]	55% @ 50 nM	54% @ 20 nM	
CCCCCCCCCCCCCC(=O)OCCN(CCOC(=O)CCCCCCCCCCCCC)C(=O)CCN(C)C [i-Et-DC, ((3-(dimethylamino)propanoyl)azanediyl)bis(ethane-2,1-diyl) ditetradecanoate]	65% @ 50 nM		
CCCCCCCCCCCCCC(=O)OCCN(CCOC(=O)CCCCCCCCCCCCC)C(=O)COC(=O)CCCN(C)C [HEDC- M1, ((2-((4-(dimethylamino)butanoyl)oxy)acetyl)azanediyl)bis(ethane-2,1-diyl) ditetradecanoate]		53% @ 20 nM	
CCCCCCCC/C=C\CCCCCCCC(=O)OCCN(CCOC(=O)CCCCCCC/C=C\CCCCCCCC)C(=O)CCCCN(C)C [C104-DO, (Z)-((5-(dimethylamino)pentanoyl)azanediyl)bis(ethane-2,1-diyl) dioleate]		32% @ 20 nM	
CCCCCCCCCCCCCC(=O)OCCN(CCOC(=O)CCCCCCCCCCCCC)C(=O)SCCN(C)C [TU104, ((((2-(dimethylamino)ethyl)thio)carbonyl)azanediyl)bis(ethane-2,1-diyl) ditetradecanoate]		76% @ 20 nM	
CCCCCCCC/C=C\CCCCCCCC(=O)OCCN(CCOC(=O)CCCCCCC/C=C\CCCCCCCC)C(=O)CCCN(C)C [i-Prop- DODC, (Z)-((4-(dimethylamino)butanoyl)azanediyl)bis(ethane-2,1-diyl) dioleate]	55% @ 50 nM	27% @ 20 nM	
CCCCCCCC/C=C\CCCCCCCC(=O)OCCN(CCOC(=O)CCCCCCC/C=C\CCCCCCCC)C(=O)CSCCN(C)C [S104-DO, (Z)-((2-((2-(dimethylamino)ethyl)thio)acetyl)azanediyl)bis(ethane-2,1-diyl) dioleate]		78% @ 20 nM	in vivo (rat DMNQ) % KD ([2]; @ 0.5 mpk): 65% @ 0.5 mpk
CCCCCCCCCCCCCC(=O)OCCN(CCOC(=O)CCCCCCCCCCCCC)C(=O)COCCN(C)C [Lipid O104, ((2-(2-(dimethylamino)ethoxy)acetyl)azanediyl)bis(ethane-2,1-diyl) ditetradecanoate]		55% @ 20 nM	
CCCCCCCCCCCCCC(=O)OCCCN(CCCOC(=O)CCCCCCCCCCCCC)C(=O)CN(C)C [i-Pr-DC, ((2-(dimethylamino)acetyl)azanediyl)bis(propane-3,1-diyl) ditetradecanoate]	53% @ 50 nM		
CCCCCCCC/C=C\CCCCCCCC(=O)OCCN(CCOC(=O)CCCCCCC/C=C\CCCCCCCC)C(=O)CCN(C)C [i-Et- DODC, (Z)-((3-(dimethylamino)propanoyl)azanediyl)bis(ethane-2,1-diyl) dioleate]	43% @ 50 nM		
